Reference: patent US20110144027A1, “PHARMACEUTICAL COMPOSITIONS FOR PROMOTING WOUND HEALING” (priority 2006, published 2011)
Read-outs that look alike come from different tables or passages of the source.

Experiments:
[1] = system: wound; conditions: rats; cited from earlier work
[2] = Toxicokinetics after topical application on full-thickness wounds in minipigs; format: in vivo, Gottingen SPF minipigs; conditions: for AUC(0-t) / Cmax / half-life / Tmax: Gottingen SPF, minipig, plasma, topical or ocular, 2000 ug/day, topical 2000 μg/day (500 μg/g Gel), Day 6; for AUC(0-t): read-out: AUC24 h (Mean ± CV); for Cmax: read-out: Cmax (Mean ± CV); for half-life: read-out: T1/2 (Mean ± CV) (converted); for Tmax: read-out: Tmax (Mean ± CV)
From the text: (§1) Testing of concentrations of 2-[2-(4-Chlorophenyl)ethoxy]adenosine in blood plasma: 2-[2-(4-Chlorophenyl)ethoxy]adenosine concentrations in blood plasma taken from a patient may be quantitated. A non-limiting example of an assay to quantitate 2-[2-(4-Chlorophenyl)ethoxy]adenosine in blood plasma is an HPLC/MS/MS bioanalytical assay. The assay used an organic precipitation of protein accomplished with addition of acetonitrile to plasma followed by a thorough mixing and centrifugation to separate the denatured protein and supernatant. Aliquots of the supernatant were injected onto a HPLC system equipped with a triple quadrapole mass spectrometer which provided highly specific and sensitive detection of the molecular ion of interest. Concentrations of 2-[2-(4-Chlorophenyl)ethoxy]adenosine were determined from peak area ratios of 2-[2-(4-Chlorophenyl)ethoxy]adenosine and the internal standard using weighted linear regression curves (1/×). The assay was highly robust and reproducible within the validated range of 1.0 to 100 ng/mL.
The objective of this study was to assess the local and the systemic toxicity of the 2-[2-(4-chlorophenyl)ethoxy]adenosine formulation of the instant invention. The testing occurred in Gottingen SPF minipigs. 20 μg/g, 100 μg/g and 500 μg/g concentration of the 2-[2-(4-chlorophenyl)ethoxy]adenosine formulation were created using the methods described in Example I. The 20 μg/g and 100 μg/g formulation are described below. The components of the 500 μg/g formulation and the placebo control were as described in Example 1.
The total dosage of 2-[2-(4-chlorophenyl)ethoxy]adenosine per minipig ranged from 80 μg to 2000 μg/day. The formulation was administered topically once per day in 1 mL (1 g) doses at 20 μg/g, 100 μg/g and 500 μg/g concentration per wound per administration on surgically established full-thickness wounds until wound closure. Each minipig had multiple (4) wounds that received treatment.
A total of 40 Gottingen SPF minipigs (20 males and 20 females) were included in the study. The animals were allocated into four groups each of 4 males and 4 females. In addition, 4 animals (2 of each sex per group), were included as recovery animals for the control/placebo group (Group 1) and the high-dose group (Group 4).
From Day 1 through Day 13, 2-[2-(4-chlorophenyl)ethoxy]adenosine formulation at either 20 μg/g, 100 μg/g or 500 μg/g concentration was applied topically on surgically established circular full-thickness wounds (wound diameter 20 mm; 4 wounds per animal) on a daily basis in a dose volume of approximately 1 mL per wound until wound closure. The dose levels and animal numbers are provided Table 20.
Toxicokinetic sampling occurred on Day 6 at the following time points: pre-treatment, and 0.5, 1, 3, 5, 7, 9, 12 and 24 hours post-treatment. […] Non-compartmental pharmacokinetic analysis of plasma 2-[2-(4-chlorophenyl)ethoxy]adenosine concentration profiles in Groups 2, 3, and 4 (low-, mid- and high-dose) animals yielded pertinent pharmacokinetic parameters, which are summarized by treatment and gender in Table 20.

[3] = Systemic absorption in patients (plasma HPLC/MS/MS assay); format: in vivo, human; conditions: any topical dose concentration (5, 50, 500 μg/g), initial, day 16 and day 28, LLOQ 1.0 ng/mL
From the text: as §1
2-[2-(4-Chlorophenyl)ethoxy]adenosine was administered to patients with chronic, neuropathic, diabetic foot ulcers (DFU). […]

[4] = system: wound; conditions: healthy BALB/C mice; cited from earlier work

Row | systemic absorption (blood plasma, HPLC/MS/MS assay) [3] | Structure (SMILES) | rate of wound closure [1] | AUC(0-t) ([2]; Female minipigs) [ng·h/mL] | Cmax ([2]; Female minipigs) [ng/mL] | half-life ([2]; Female minipigs) [h] | Tmax ([2]; Female minipigs) [h] | AUC(0-t) ([2]; Male minipigs) [ng·h/mL] | Cmax ([2]; Male minipigs) [ng/mL] | half-life ([2]; Male minipigs) [h] | Tmax ([2]; Male minipigs) [h] | absorption into the systemic circulation from topical administration in open wounds ([2]; minipigs, wound healing phase, 80-2000 μg/day) | wound healing [4]
1 |  | CCNC(=O)[C@H]1O[C@@H](n2cnc3c(N)nc(NCCc4ccc(CCC(=O)O)cc4)nc32)[C@H](O)[C@@H]1O [CGS 21680, 2-[p-(carboxyethyl)phenylethylamino]-5′-N-ethylcarboxamidoadenosine] | increase the rate of wound closure |  |  |  |  |  |  |  |  |  | 
2 | No systemic absorption | Nc1nc(OCCc2ccc(Cl)cc2)nc2c1ncn2[C@@H]1O[C@H](CO)[C@@H](O)[C@H]1O [2-[2-(4-chlorophenyl)ethoxy]adenosine] |  | 6.65 | 0.45 | 28.4 | 7.5 | 7.25 | 0.46 | 122 | 7.8 | minimal | promote wound healing
